One compound from patent publication US11851681B2, “Cell preparation method” (KYOTO PREFECTURAL PUBLIC UNIVERSITY CORPORATION, priority 2015, dated 2023) can be followed below.

“Also recorded” adds a separate entry of the source.

The test system of test [1] is Human normal skin-derived fibroblasts (HDFs). Kind of test: Alizarin Red S and ALP staining, absorbance, TGF-β pathway inhibitor panel, Examples 31-32. Format: cell-based. The protocol:
On day 21, the culture medium was removed from a part of the well, washed with PBS(-), and fixed with a fixative. It was washed 3 times with sterile distilled water. […] In the experiment of Example 31, the solution after staining with the Alizarin Red S staining solution was collected in a 96 well plate and the absorbance (OD 550 nm) was measured with an absorption spectrometer.

For test [2] the test system is unchanged. Kind of test: Real-time RT-PCR of ALP, Osteocalcin, Bonesialoprotein, Example 35. Format: cell-based. The conditions noted are these: calcification induction medium added with ALK5 i II 4 μM; day 18; FIG. 39. Here is the method:
The concentrations of the small molecule compound or cytokine added are as follows. • ALK5 i II: 4 μM • 1α,25-dihydroxy Vitamin D3 (VD3): 5 nM • Human insulin-like growth factor-1 (IGF-1): 100 ng/ml.

For test [3] the test system is unchanged. The experiment in a line: Real-time RT-PCR of UCP1, four inhibitors, Example 39. In kind it is cell-based. The protocol:
The addition concentration of the compound was 4 μM, 8 μM, 12 μM or 16 μM. […] Thereafter, in Day 9-Day 14, culturing was performed in a medium free of ALK5 inhibitor II, LY2157299, SB431542, D4476.

For test [4] the test system is unchanged. Kind of test: Real-time RT-PCR of UCP1, CIDEA, KCNK3, Example 41. Format: cell-based. The settings on record: ALK5 inhibitor II or LY2157299 (8 μM), Day 1 to Day 8; day 14; FIG. 45.
Experimental: Human normal skin-derived fibroblasts (HDFs) were suspended in a general medium (DMEM added with 10% FBS). […] The adipocyte induction medium is DMEM added with 1 nM T3, 1 μM Rosiglitazone, 0.5 mM 3-isobutyl-1-methylxanthine (IBMX), 0.5 μM dexamethasone, 1 μg/mL Insulin and 10% FBS. Once every 2 days, the culture medium was exchanged with a fresh one, and culturing was performed from Day 1 to Day 8. Thereafter, from Day 9 to Day 14, the cells were cultured in an adipocyte induction medium free of ALK5 inhibitor II or LY2157299. On day 14, the culture medium was removed by suction from each well, washed with PBS(−) and total RNA was extracted from the cells by using RNA easy Mini Kit manufactured by Qiagen. cDNA was synthesized from the RNA by using Rever Tra Ace qPCR RT Master Mix. This cDNA was admixed with Real-time PCR Master Mix, primers specific to UCP-1 gene, CIDEA gene, KCNK3 gene or β actin gene and Taqman probe. qRT-PCR was performed using AB7300 Real-time PCR system. The mRNA level of UCP1 gene was quantified as a ratio to β-actin gene mRNA, and calculated with the value of fibroblast cultured in the general medium as 1.
The test system is the same in test [5]. The settings on record: 4 μM in adipocyte induction medium Day 1 to Day 8; day 14; FIG. 46. The protocol: Human normal skin-derived fibroblasts (HDFs) were suspended in a general medium (DMEM added with 10% FBS). […] The adipocyte induction medium is DMEM added with 1 nM T3, 1 μM Rosiglitazone, 0.5 mM 3-isobutyl-1-methylxanthine (IBMX), 0.5 μM dexamethasone, 1 μg/mL Insulin and 10% FBS. […] On day 14, the culture medium was removed by suction from each well, and washed with PBS(−). […] After washing 3 times with PBS(−), Blocking One was added, and the mixture was incubated at room temperature for 60 min. Anti-UCP-1 antibody (RD MAB6158) was added and the mixture was reacted for 2 hrs at room temperature, and washed 3 times with Wash buffer. CF488-conjugated anti-mouse Ig antibody (Biotum 20014) was added and the mixture was reacted for 2 hrs at room temperature, and washed 3 times with PBS(−). After nuclear staining with SlowFade Gold antifade reagent with DAPI manufactured by Lifetechnology, the cells were photographed with a fluorescence microscope at ×100 magnification.

Test [6] deals with Human Epidermal Keratinocyte; NHEK (AD). The conditions noted are these: CnT-PR medium, 1 μM or 10 μM; day 21; FIG. 56.
Test [7] relates to human dermal fibroblasts; HDFs. The conditions noted are these: 4 μM in calcification induction medium; day 18; FIG. 20.
Experimental: The calcification induction medium is a 10% FBS DMEM added with 50 μg/ml ascorbic acid, 10 mM β-glycerophosphate and 100 nM Dexamethasone. The culture medium was exchanged with a fresh one every 3-4 days, and culturing was performed until day 18. On day 18, the culture medium was removed from each well by suction, washed with PBS(−), and fixed with 10% formalin. It was washed 3 times with sterile distilled water. The well after staining with Alizarin Red S was washed with sterile distilled water, and photographed with an inverted microscope at ×40 magnification.
The test system of test [8] is human dermal fibroblasts; HDFs. The conditions noted are these: 4 μM in calcification induction medium; day 18; FIG. 22.
Experimental: (§1) The calcification induction medium is a 10% FBS DMEM added with 50 μg/ml ascorbic acid, 10 mM β-glycerophosphate and 100 nM Dexamethasone. The culture medium was exchanged with a fresh one every 3-4 days, and culturing was performed until day 18.
On day 18, the culture medium was removed from each well by suction, washed with PBS, and total RNA was extracted from the cell with ISOGEN II. cDNA was synthesized from the RNA by using Rever Tra Ace qPCR RT Master Mix. This cDNA was admixed with Real-time PCR Master Mix, and primers specific to Osteocalcin, Alkaline Phosphatase or β-actin gene, and Taqman probe. qRT-PCR was performed using AB7300 Real-time PCR system. The mRNA level of Osteocalcin (Oc) and Alkaline Phosphatase (ALP) gene was quantified as a ratio to β-actin gene mRNA, and calculated with the value of fibroblast cultured in a calcification induction medium as 1.
The subject of test [9] is human gingival fibroblasts; GFs. The settings on record: 4 μM in calcification induction medium; day 18; FIG. 27.
Experimental: as §1
On day 18, the culture medium was removed from each well by suction, washed with PBS(−), and fixed with 10% formalin. It was washed 3 times with sterile distilled water. The well after Alizarin Red S staining was washed with sterile distilled water, and photographed with an inverted microscope at ×40 magnification.
Test [10] shares this test system. The conditions noted are these: 4 μM in calcification induction medium; day 18; FIG. 28.
Experimental: as §1
On day 18, the culture medium was removed from each well by suction, washed with PBS(−), and fixed with a fixative. It was washed 3 times with sterile distilled water. The well after ALP staining was washed with sterile distilled water, and photographed with an inverted microscope at ×40 magnification.
The subject of test [11] is human peripheral blood mononuclear cells; PBMCs. The conditions noted are these: P-adipocyte induction medium, 4 μM; day 14; FIG. 57.
Experimental: Human normal peripheral blood mononuclear cells (human peripheral blood mononuclear cells; PBMCs) were suspended in Control medium (RPMI1640 medium added with 10% FBS). […] P-adipocyte induction medium (adipocyte induction medium for peripheral blood mononuclear cell) was added to group 2 at 1 mL/well. P-adipocyte induction medium added with ALK5 inhibitor II at a concentration of 4 μM was added to group 3 at 1 mL/well. The P-adipocyte induction medium is RPMI1640 medium added with 10% FBS, 30 U/ml recombinant hIL-2, 1 nM T3, 1 μM Rosiglitazone, 0.5 mM 3-isobutyl-1-methylxanthine (IBMX), 0.5 μM dexamethasone and 1 μg/mL Insulin. Once every 2 days, 50% of the culture medium was exchanged with a fresh one.
On day 14, the culture medium was removed by suction from each well, washed with PBS(−) and total RNA was extracted from the cells by using RNA easy Mini Kit manufactured by Qiagen. cDNA was synthesized from the RNA by using Rever Tra Ace qPCR RT Master Mix. This cDNA was admixed with Real-time PCR Master Mix, primers specific to FABP4 gene or β actin gene and Taqman probe. qRT-PCR was performed using AB7300 Real-time PCR system. The mRNA level of FABP4 gene was quantified as a ratio to 3-actin gene mRNA level, and calculated with the value of human normal peripheral blood mononuclear cell cultured in the general medium as 1.
Test [12] concerns human dermal fibroblasts; HDFs. Kind of test: Bodipy staining in WA medium (BODIPY positive cells), Example 46. The conditions noted are these: day 12, FIG. 50.
Setting [13] is: description, conditions not given.

In the case of `Cc1cccc(-c2n[nH]cc2-c2ccc3ncccc3n2)n1` [ALK5 inhibitor II, 2-(3-(6-Methylpyridin-2-yl)-1H-pyrazol-4-yl)-1,5-naphthyridine], the “conversion of human fibroblast to osteoblast, Alizarin Red S / ALP staining and absorbance” value in test [1] (calcification induction medium, compounds 1 or 4 μM, TGF-β 10 ng/ml, day 21, FIG. 35, 36, listed as ALK5 i II) is reported as “can strongly convert human fibroblast to osteoblast; also recorded: can most strongly convert human fibroblast to osteoblast”. In addition, the “efficiency in converting fibroblast to osteoblast (summary statement)” value in [1] (setting [13]) is recorded as “highly efficient in converting fibroblast to osteoblast”. Besides, in test [2], the “mRNA expression of ALP” value was “significantly increased”; the “mRNA expression of BSP, compared to calcification induction medium” value is recorded as “increased”; the “mRNA expression of OC, compared to calcification induction medium” value is “increased”. Also, the “conversion of fibroblast to brown adipocyte, UCP1 mRNA” value in [3] (4 μM, 8 μM, 12 μM or 16 μM in adipocyte induction medium Day 1 to Day 8, then compound-free to day 14, FIG. 43) is “converted fibroblast to brown adipocyte strongly expressing UCP1 gene; also recorded: most strongly induced”. Besides, in [3] (setting [13]), the “efficiency in converting fibroblast to brown adipocyte (summary statement)” value is on record as “highly efficient in converting fibroblast to brown adipocyte”. In [4], the “conversion of fibroblast to brown adipocyte, UCP1, CIDEA and KCNK3 mRNA” value is “converted fibroblast to brown adipocyte expressing UCP1 gene, CIDEA gene and KCNK3 gene; also recorded: more strongly induced”. Also, in [5], the “fibroblasts converted to brown adipocyte highly expressing UCP1 protein (UCP1 positive cells in DAPI positive cells)” value was “more than 90%” and the “staining with anti-UCP1 antibody” value was “many cells were strongly stained with anti-UCP1 antibody”. In test [6], the “conversion of epidermal keratinocyte to urothelial cell, Uroplakin 1b and Uroplakin 3b mRNA” value is “converted human epidermal keratinocyte to urothelial cell expressing Uroplakin 1b gene and Uroplakin 3b gene”. For the same compound, the “conversion of fibroblast to osteoblast, Alizarin Red S staining” value in test [7] is listed as “converted human skin-derived fibroblast to osteoblast that produces a large amount of calcified bone matrix”. The “conversion of fibroblast to osteoblast, Osteocalcin and ALP mRNA” value in test [8] is “converted human skin-derived fibroblast to osteoblast expressing osteocalcin gene and ALP gene”. Besides, the “conversion of gingival-derived fibroblast to osteoblast, Alizarin Red S staining” value in test [9] is reported as “converted human gingival-derived fibroblast to osteoblast that produces a large amount of calcified bone matrix”. For the same compound, the “conversion of gingival-derived fibroblast to osteoblast, ALP staining” value in [10] was “converted human gingival-derived fibroblast to osteoblast having high ALP activity”. The “conversion of peripheral blood mononuclear cell to white adipocyte, FABP4 mRNA” value in test [11] was “converts human normal peripheral blood mononuclear cell to white adipocyte expressing FABP4 gene”. In addition, the “BODIPY positive cells / conversion to white adipocyte, co-addition with Rosiglitazone” value in test [12] (WA medium co-added with 8 μM or 16 μM ALK5 inhibitor II and 1 μM Rosiglitazone) is “more cells were stained; also recorded: more strongly induced conversion of fibroblast to white adipocyte”. Besides, the “BODIPY positive cells / conversion to white adipocyte, single addition” value in test [12] (WA medium, 1 μM Rosiglitazone or 16 μM ALK5 inhibitor II) is listed as “contained stained cells at low frequency; also recorded: converted human fibroblast to white adipocyte”.
